Measured values published in patent publication US8883798B2, “Pyrimidine compounds inhibiting the formation of nitric oxide and prostaglandin E2, method of production thereof and use thereof” (Ustav Organicke Chemie a Biochemie Akademie Ved CR, V.V.I., priority 2011, dated 2014).

Legend:
peritoneal cells of mice = experiment: Cell viability of mouse peritoneal cells (WST-1 kit); type: cell-based; conditions: Table 3A, substance 50 μmol·l^−1, 24 h
In short: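 C57BL/6 mouse peritoneal cells (1×10^6/mL) cultured 24 h with compounds at 50 μmol·l^−1. Viability read with WST-1 tetrazolium salt and expressed as percent of untreated control cells (100%).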

[1] = tested on: Salmonella typhimurium TA 98 and TA 100, Escherichia coli WP2 uvrA; conditions: all strains, all tested concentrations, with and without metabolic activation
Experimental: With compound 28, its possible mutagenicity (genotoxicity) was assessed using the standard bacterial reverse mutation test. According to Council Regulation (ES) No. 440/2008, stipulating the test methods according to the European Parliament and Council regulation (ES), the method used was B.13/14, Mutagenicity—Reverse Mutation Test Using Bacteria, which is described in the same way also in the OECD Test Guideline No. 471.
[…] The experiments were conducted without using metabolic activation and after activation with supernatant S9 from […] livers and with mixtures of cofactors (NADP and glucoso-6-phosphate) to determine the mutagenicity of the metabolic products of the compound tested. Supernatant S9 was prepared according to the literature [Mutat. Res. 113, 173-215, 1983].
The principle of the test is to detect possible revertants created by reverse mutation, which would be induced in the bacterial culture by the tested compound. Specially constructed bacterial strains are used, carrying mutations in the place for his (trp), which are not capable of forming colonies on the minimum plates without histidine or tryptophan. […] Mutagenic potential is given by the growing number of revertants in the influenced groups in comparison with a negative control, and/or in dependence on the growing number of revertants on the dose of the tested compound.
Bacterial testers, types Salmonella typhimurium TA 98 (CCM 3811) and Escherichia coli WP2 uvrA (CCM 4751), were acquired from the Czech Collection of Microorganisms of Masaryk University, Brno and the strain Salmonella typhimurium TA100 (CIP 103796, lot No. 1008) from the Biological Resource Center, Institut Pasteur in Paris (CRBIP).

[2] = tested on: acute experimental colitis in mice; experiment: Acute experimental colitis induced in mice by dextran sulphate sodium; type: in vivo, mice BALB/c; conditions: for Therapeutical effect compared with 6-TG: acute colitis, approximately 10 mg/kg; for Course of induced acute experimental colitis: approximately 10 mg/kg by stomach probe for seven days; for Protection from severe forms of acute experimental colitis: daily oral doses of 2.5 mg/kg or 10 mg/kg
Experimental: The compounds tested were dissolved in 0.5% methylcellulose (MC, Bio-test s.r.o., Konárovice, Czech Republic; Lot: 050510BT) to acquire a final concentration of 2 mg/ml (ca 10 mg/kg). To achieve homogeneity of the suspensions, the substances in MC were disintegrated by ultrasound (sonicated; 20 s, λ=0.1 μm). Fresh suspensions were prepared every day.
The female mice of strain BALB/c at 13 weeks old were acquired from the breeding of the Institute of Physiology of the ASCR, v.v.i. Colitis was induced in them by administering a 3% solution (weight/volume) of sodium dextran sulphate (DSS, mol. weight 36-50 kDa; MP Biomedicals, Inc.) in drinking water for a period of seven days [Gastroenterology 98, 694-7, 1990]. Beginning on Day 1 of DSS administration, also a dose of the tested compound, dissolved in 100 μl MC (only a dose of methylcellulose in the case of the control animals), was administered for seven days by stomach probe.
The severity of the colitis was assessed on the last day of the experiment by scoring the clinical activity, histological parameters and measuring the length of the intestine.
The entire intestine was removed post mortem, without tightening it was placed on a ruler and measured. Shortening of the intestine is an indirect marker of infection (the shorter the intestine, the more serious the infection).
The points of the clinical activity are the sum of the individual assessments from 0 to 4 and were calculated using the following parameters: reduction of body weight (none=0 points, reduction by 1 to 5%=1 point, by 5-10%=2 points, by 10-20%=3 points, by 20%=4 points), consistency of the feces (solid=0 points; not solid, but not sticking to the anus=2 points; liquid, sticking to the anus=4 points) and bleeding (none=0 points, positive Guajak reaction=2 body, strong bleeding=4 points). This point assessment was totaled and divided by three to acquire the overall index of the activity of the disease, which was in a range from 0.0 (a healthy individual) to 4.0 (maximum activity of colitis) as described by Cooper et al. [Lab. Invest. 69, 238-49, 1993].
The descending colon was fixed in a buffered solution of 4% formaldehyde and poured into paraffin for the histological assessment. The sections were stained in hematoxylin/eosin. For every sample, four cross cuts were tested, which had been separated from one another by sections of a length of […]. The histological assessment was made for every cut by two pathologists in blind order, which provided an assessment combining the level of the infiltration of leukocytes into the layer of the lamia propria and into the submucosa along with the extent of the damage of the mucous membrane (see Table 1). The overall assessment is the average of the evaluation of the four sections, which was in a range from 0 (no signs of colitis) to 3 (severe colitis).
The differences in the intestinal length, DAI (disease activity index) and histological assessment of multiple groups were compared with the control group (MC/DSS) using a one-way analysis of the differences with a Dunnett test of multiple comparison. The differences were considered as statistically significant at P<0.05.
Compounds 28 and 51 were suspended in 0.5% methylcellulose (MC, Bio-test s.r.o., Konárovice, Czech Republic, Lot: 050510BT) to a concentration of 2 mg/ml (approximately 10 mg/kg). Sterile 0.5% MC was used as a placebo and a dose of 40 mg/each administration of 6-thioguanine (6TG) in 0.5% MC as a positive control. The administered suspensions were prepared freshly […].

Row | SMILES | Cell viability in % of the controls (peritoneal cells of mice) | Mutagenicity (reverse mutation) [1] | Therapeutical effect compared with 6-TG [2] | Course of induced acute experimental colitis [2] | Protection from severe forms of acute experimental colitis [2]
1 | CCCCc1c(Cl)nc(N)nc1Cl [Substance 28] | 100.42 ± 5.77 % of the controls | non-mutagenous | minimally equal with the effect of 6-TG | statistically significant reduction of the course of the induced (severe form) experimental colitis | protect mice from the severe forms of acute experimental colitis
2 | CCCCc1c(Cl)nc(NC=O)nc1Cl [Substance 51] | 92.15 ± 9.90 % of the controls | non-mutagenous | minimally equal with the effect of 6-TG | statistically significant reduction of the course of the induced (severe form) experimental colitis | protect mice from the severe forms of acute experimental colitis
